Experimental data from patent US20240108610A1, “RECTAL ADMINISTRATION OF ROFLUMILAST FOR THE TREATMENT OF CROHN'S DISEASE” (King Abdulaziz University, priority 2022, published 2024).
Marks after values point to notes of the source that are not given here.

Tests used:
Assay type in all cases: in vivo, rat
[1] = system: trinitrobenzenesulfonic acid (TNBS)-induced colitis; experiment: Colonic length and macroscopic appearance in TNBS-induced chronic colitis
Procedure: (§1) Chronic colitis was induced by weekly rectal injections of increasing doses of TNBS over 6 weeks (15, 30, 45, 60, 60, and 60 mg from day 0 to day 35), as previously described (4,12). Briefly, after food deprivation for 24 h, rats were anesthetized with an intraperitoneal injection of 1% isoflurane. TNBS was dissolved in ethanol (50%) and instilled into the colon using a cannula (0.25 mL), and then the rats were held upside down for 3 min to prevent escape of the intracolonic TNBS. Roflumilast was dissolved in dimethyl sulfoxide and diluted in 0.5% carboxymethyl cellulose sodium to a final concentration of 5.0 mg·kg^−1·day^−1 as previously described (13). Five groups of rats (n=8) were established: normal control (NC group), TNBS-treated (TNBS group, positive control), and three TNBS-treated groups that received oral sulfasalazine (SS group, 500 mg/kg) (14), oral roflumilast (by gastric gavage, OR group, 5 mg/kg), or rectal roflumilast (RR group, 5 mg/kg). Treatments were administered once daily in a volume of 200 μL for 15 days starting 48 h after the induction of colitis (from day 37) (15), and the control rats received equal amounts of vehicle. At the end of the treatment period, the rats were evaluated with the colitis activity score. To detect the effects of the treatments on systemic inflammatory processes, blood was collected for measurements of the proinflammatory mediators TNF-α, IL-2, and IL-6. At the end of the 15-day treatment period, the rats were sacrificed by cervical dislocation, and the colon was isolated, cleaned of feces, and measured for weight and length. Colonic myeloperoxidase (MPO) activity and glutathione (GSH) and malonaldehyde (MDA) levels were measured. The colon was examined macroscopically for gross changes and microscopically in sections stained with hematoxylin and eosin (H&E), Masson trichrome, and Periodic Acid Schiff (PAS) stains as well as KI-67 and TNF-α immunostaining. After the rats were sacrificed, their colon was excised, and its length was measured. The appearance of the colon regarding edema, ulceration, and necrosis was evaluated (17).

IL-6 = experiment: Serum IL-6 ELISA in TNBS-induced colitis; settings: means±SE, n = 8
Procedure: as §1, with “Blood” for “After the rats were sacrificed, their colon”, “collected through cardiac puncture. The serum was obtained” for “excised,”, “stored at −80° C. until analysis. […]” for “its length was measured. The appearance of the colon regarding edema, ulceration, and necrosis was evaluated (17).”

IL-2 = experiment: Serum IL-2 ELISA in TNBS-induced colitis; settings: means±SE, n = 8
Procedure: as §1, with “Blood” for “After the rats were sacrificed, their colon”, “collected through cardiac puncture. The serum was obtained” for “excised,”, “stored at −80° C. until analysis. […]” for “its length was measured. The appearance of the colon regarding edema, ulceration, and necrosis was evaluated (17).”

[2] = system: trinitrobenzenesulfonic acid (TNBS)-induced colitis; experiment: Disease activity score in TNBS-induced chronic colitis; settings: oral, once daily for 15 days; sulfasalazine 500 mg/kg, roflumilast 5 mg/kg; vs TNBS group
Procedure: Chronic colitis was induced by weekly rectal injections of increasing doses of TNBS over 6 weeks (15, 30, 45, 60, 60, and 60 mg from day 0 to day 35), as previously described (4,12). Briefly, after food deprivation for 24 h, rats were anesthetized with an intraperitoneal injection of 1% isoflurane. TNBS was dissolved in ethanol (50%) and instilled into the colon using a cannula (0.25 mL), and then the rats were held upside down for 3 min to prevent escape of the intracolonic TNBS. Roflumilast was dissolved in dimethyl sulfoxide and diluted in 0.5% carboxymethyl cellulose sodium to a final concentration of 5.0 mg·kg^−1·day^−1 as previously described (13). […] At the end of the treatment period, the rats were evaluated with the colitis activity score. […] At the end of the 15-day treatment period, the rats were sacrificed by cervical dislocation, and the colon was isolated, cleaned of feces, and measured for weight and length. Colonic myeloperoxidase (MPO) activity and glutathione (GSH) and malonaldehyde (MDA) levels were measured. […] The colitis activity index was determined to evaluate the activity of intestinal inflammation as previously described with a slight modification (16). […]

[3] = oral, once daily for 15 days, sulfasalazine 500 mg/kg, roflumilast 5 mg/kg
[4] = rectal, 5 mg/kg once daily for 15 days
[5] = oral, once daily for 15 days, SS 500 mg/kg, OR 5 mg/kg

## O=C(Nc1c(Cl)cncc1Cl)c1ccc(OC(F)F)c(OCC2CC2)c1 [roflumilast]
[1]; [3]
  Colonic length: more improvement than rectal roflumilast
  Colonic macroscopic appearance: moderate to marked improvement
[1]; [4]
  Colonic macroscopic appearance: mild improvement
IL-6; [5]
  serum level of IL-6: 21.85 ± 1.00^j, k, l pg/mL
IL-6; [4]
  serum level of IL-6: 28.93 ± 0.50^j, k pg/mL
IL-2; [5]
  serum level of IL-2: 302.75 ± 11.32^g, h, i pg/mL
IL-2; [4]
  serum level of IL-2: 363.87 ± 12.73^g pg/mL
[2]
  Disease activity score: decreased the score more than rectal roflumilast

## O=C(O)c1cc(/N=N/c2ccc(S(=O)(=O)Nc3ccccn3)cc2)ccc1O [sulfasalazine]
[1]; [3]
  Colonic length: greatest effect
  Colonic macroscopic appearance: marked improvement
IL-6; [5]
  serum level of IL-6: 16.14 ± 1.13^k, m pg/mL
IL-2; [5]
  serum level of IL-2: 257.97 ± 7.72^g pg/mL
[2]
  Disease activity score: greatest decrease
